Test results from patent US20200404916A1, “METHOD OF REDUCING CROP DAMAGE” (BAYER AKTIENGESELLSCHAFT, priority 2018, published 2020).

Key:
winter wheat, TRZAW [1] = assay: Post-emergence greenhouse pot test, visual scoring of crop damage on winter wheat; assay type: in vivo
Excerpt: Post-emergence application was done when the plants had reached growth stage BBCH11 (BBCH is the international coding system for the growth stage of crops and weeds).
The safener (mefenpyr-diethyl) was formulated as wettable powder (WP).
The compounds were sprayed onto the green parts of the plants as an aqueous suspension at an equivalent water application rate of 300 l/ha.
(§1) The combination of herbicide and safener was applied as a tank mix.
(§2) After application, the test plants were kept in the greenhouse under good growth conditions.
(§3) Values in the table below are mean values from at least 3 replicates.
(§4) For the safener seed treatment, sufficient seeds were weighed into screw top glass bottles approximately twice the volume of the seeds.
(§5) The safener (mefenpyr-diethyl, formulated as suspension concentrate (SC)) was weighed out so that the required rates (g a.i./kg seed) would be obtained, dissolved in water (1 ml water per 10 g of seeds), and added to the seeds to produce a slurry.
(§6) The bottles were capped and then placed in an overhead shaker (set at medium speed for up to 1 hour) so that the seeds were evenly coated with the slurry. The bottles were uncapped and the seeds were sown as described above.
(§7) For the seed treatment process, the blind formulation (the SC formulation without the safener mefenpyr-diethyl) was used as seed treatment as described above.
Post-emergence application of the herbicide was done when the plants had reached growth stage BBCH11.
Post-emergence application was done when the plants had reached growth stage BBCH11.

winter wheat, TRZAW [2] = assay: Pre-emergence greenhouse pot test, visual scoring of crop damage on winter wheat; assay type: in vivo
Experimental: as §4, §5, §6, §7
The compounds were sprayed to the soil surface as an aqueous suspension at an equivalent water application rate of 300 l/ha.
as §1, §2, §3

Compound: CCOC(=O)C1=NN(c2ccc(Cl)cc2Cl)C(C)(C(=O)OCC)C1 (stereo not drawn) [Safener in tank mix, ethyl 1-(2,4-dichlorophenyl)-5-(ethoxycarbonyl)-5-methyl-2-pyrazoline-3-carboxylate]
- % crop damage (winter wheat, TRZAW [1]; safener 200 g/ha in tank mix alone, post-emergence (BBCH11), no herbicide, 14 days after application): 5%
- % crop damage (winter wheat, TRZAW [1]; safener seed treatment 0.5 g/kg alone, no herbicide, post-emergence test series): 0%
- % crop damage (winter wheat, TRZAW [2]; safener 200 g/ha in tank mix alone, pre-emergence, no herbicide, 14 days after application): 5%
- % crop damage (winter wheat, TRZAW [2]; safener seed treatment 0.5 g/kg alone, no herbicide, pre-emergence test series): 5%

Compound: Diflufenican [Herbicide post-em.]
- % crop damage (winter wheat, TRZAW [1]; herbicide 200 g/ha post-emergence (BBCH11), no safener, 14 days after application, mean of at least 3 replicates): 20%
- % crop damage (winter wheat, TRZAW [2]; herbicide 200 g/ha pre-emergence, no safener, 14 days after application, mean of at least 3 replicates): 25%
